This note sets out measurements from ChEMBL document CHEMBL1201862, “PubChem BioAssay data set” (2004).

Assay in all cases: NCI anticancer screen, dose series, 48 h
Assay [1] relates to SF-268.
In assay [2] the test system is HCT-116.
Assay [3] concerns SK-MEL-28.
The subject of assay [4] is NCI-H460.
Assay [5] has as its system HCT-15.
Assay [6] concerns NCI-H226.
In assay [7] the test system is EKVX.
The test system of assay [8] is SF-539.
For assay [9], the system named is CAKI-1.
Assay [10] concerns SK-MEL-2.
Assay [11] has as its system OVCAR-3.
In assay [12] the test system is CCRF-CEM.
Assay [13] deals with KM12.
In assay [14] the test system is A498.
Assay [15] relates to HT-29.
The test system of assay [16] is UO-31.
Assay [17] has as its system UACC-257.
Assay [18] relates to HCC 2998.
Assay [19] concerns K562.
The test system of assay [20] is ACHN.

The structures appear in SMILES notation.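 All cell lines were grown in 96-well plates and treated with compound for 48 hours. GI50: concentration for 50% inhibition of growth.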 Calls of active or inactive are those of the source. No stated cut-off is given here; in the data, active = GI50 up to about 1.1 µM and inactive = higher.

With `Cc1c2ccncc2c(C)c2c1[nH]c1ccc(OCCN(C)C)cc12`, the GI50 in assay [1] is 0.151 µM (active); in [2] it was 0.0455 µM (active); in assay [3] it was 0.577 µM (active); in assay [4], 0.0308 µM (active); in assay [5], 0.123 µM; in assay [6], 0.365 µM (active). Moreover, the GI50 was 0.526 µM (active) in assay [7]; 0.832 µM (active) in [8]; 0.463 µM (active) in [9]; 0.658 µM (active) in [10]; 0.333 µM (active) in [11]; 0.024 µM (active) in assay [12]. For the same molecule, the GI50 in assay [13] is 0.105 µM (active); in assay [14], 1.19 µM (inactive); in assay [15], 0.171 µM (active); in [16], 0.641 µM (active); in assay [17] it was 0.92 µM (active); in [18], 0.22 µM (active). The GI50 in [19] was 0.0614 µM (active).
Turning to `COC1(O)c2cccc(Cl)c2C(=O)N1C1(C(N)=O)CCCCC1` (stereo unspecified), the GI50 is > 100 µM (inactive) in assay [1]; > 100 µM (inactive) in [2]; > 100 µM (inactive) in assay [3]; > 100 µM (inactive) in [4]; more than 100 µM in assay [5]; > 100 µM (inactive) in assay [6]. In addition, the GI50 in [7], in assay [8], in [9], in [10], in assay [11] and in [12] was > 100 µM (inactive) in each case. Also, the GI50 in assay [13] was > 100 µM (inactive); in [14] it was > 100 µM (inactive); in [15] it was > 43.7 µM (inactive); in assay [16] it was > 100 µM (inactive); in assay [17], > 100 µM (inactive); in [18], > 100 µM (inactive). In addition, the GI50 in [19] was > 100 µM (inactive).
In the case of `N#Cc1c(N2CCCC2)ncn(-c2ccccc2)c1=S`, the GI50 in assay [1] is > 100 µM (inactive); in [2], > 100 µM (inactive); in assay [3] it was > 100 µM (inactive); in assay [20], > 100 µM (inactive); in [4] it was > 100 µM (inactive); in assay [5] it was more than 100 µM. The GI50 in assay [6], in assay [7], in assay [8], in [9], in [10] and in assay [11] was > 100 µM (inactive) in each case. In addition, the GI50 in assay [12], in [13], in assay [14], in [15], in assay [16] and in [17] was > 100 µM (inactive) each time. The GI50 in assay [18] and in [19] was > 100 µM (inactive) throughout.
As for `O=C(Nc1nccs1)c1c(O)nc2sccn2c1=O`, the GI50 in [1] is > 10 µM (inactive); in [2], > 10 µM (inactive); in assay [3] it was > 10 µM (inactive); in [20], > 10 µM (inactive); in assay [4], > 10 µM (inactive); in assay [5], more than 10 µM. In addition, the GI50 in assay [6], in [7], in [8], in assay [9], in assay [10] and in assay [11] was > 10 µM (inactive) each time. Moreover, the GI50 in assay [12] was > 10 µM (inactive); in [13], > 10 µM (inactive); in [14] it was > 10 µM (inactive); in assay [15], > 10 µM (inactive); in assay [16] it was 6.55 µM (inactive); in [18], > 10 µM (inactive).
On to `CC1SC2=NC3=C(c4ccccc4C3=O)C(c3ccccc3Cl)N2C1=O` (stereo unspecified), for which the GI50 is > 100 µM (inactive) in assay [1]; > 100 µM (inactive) in assay [2]; > 100 µM (inactive) in [3]; > 100 µM (inactive) in [20]; > 100 µM (inactive) in assay [4]; more than 100 µM in [5]. For the same molecule, the GI50 in assay [6], in assay [7], in [8], in assay [9], in [10] and in assay [11] was > 100 µM (inactive) in each case. The GI50 in assay [12] was 70.3 µM (inactive); in assay [13], > 100 µM (inactive); in assay [14] it was > 100 µM (inactive); in assay [15], > 100 µM (inactive); in assay [16], > 100 µM (inactive); in assay [17], > 100 µM (inactive). The GI50 in assay [18] is > 100 µM (inactive); in assay [19], 90.2 µM (inactive).
As to `COc1oc(C2C/C(=C/C(C)=C/C(C)=C/C(C)=C/c3ccc([N+](=O)[O-])cc3)CO2)c(C)c(=O)c1C` (stereo unspecified), the GI50 in assay [1] is 10.3 µM (inactive); in assay [2], < 0.01 µM (active); in [3] it was 6.1 µM (inactive); in assay [20], 1.12 µM (active); in [4] it was 1.26 µM (inactive); in assay [5] it was 5.64 µM. In addition, the GI50 in assay [6] was 7.28 µM (inactive); in [7], 2.58 µM (inactive); in assay [8], 12 µM (inactive); in [9] it was 12.5 µM (inactive); in assay [10] it was 23.9 µM (inactive); in [11], 11.1 µM (inactive). The GI50 in assay [12] is 2.63 µM (inactive); in assay [13], 1.58 µM (inactive); in [14], 6.89 µM (inactive); in assay [15], 3.14 µM (inactive); in [16], 5.2 µM (inactive); in [17], 5.32 µM (inactive). Moreover, the GI50 in assay [18] was 22.4 µM (inactive); in assay [19] it was < 0.01 µM (active).
For `O=C(C1=C(C(=O)c2ccccc2)SC2(S1)C(C(=O)c1ccccc1)=C(C(=O)c1ccccc1)Sc1c2ssc1=O)c1ccccc1`, the GI50 in assay [1] is 67.5 µM (inactive); in assay [2] it was 82.4 µM (inactive); in assay [3], > 100 µM (inactive); in assay [20], 37.5 µM (inactive); in assay [4], 31.5 µM (inactive); in [5], 64.9 µM. The GI50 was 27 µM (inactive) in [6]; > 100 µM (inactive) in [7]; 24.4 µM (inactive) in assay [8]; > 100 µM (inactive) in assay [9]; 99.1 µM (inactive) in assay [10]; 67.6 µM (inactive) in assay [11]. Besides, the GI50 is 8.34 µM (inactive) in assay [12]; 29.8 µM (inactive) in assay [13]; 17.2 µM (inactive) in [14]; > 100 µM (inactive) in assay [15]; 22.4 µM (inactive) in assay [16]; > 100 µM (inactive) in assay [17]. For the same molecule, the GI50 in [18] was 55.8 µM (inactive); in [19], 30.4 µM (inactive).
`Cc1cc(C)c2c(O)cc(-c3cccc4ccccc34)nc2n1`: the GI50 in assay [1] was 2.58 µM (inactive); in assay [2] it was 0.403 µM (active); in assay [3], 10.8 µM (inactive); in assay [20], 0.594 µM (active); in assay [4], 0.653 µM (active); in [5], 0.468 µM. Moreover, the GI50 in assay [6] is 1.44 µM (inactive); in [7] it was 0.975 µM (active); in assay [8], 0.703 µM (active); in [9], 2.07 µM (inactive); in assay [10], 0.291 µM (active); in [11], 0.263 µM (active). Also, the GI50 in assay [12] is 0.719 µM (active); in [13] it was 0.406 µM (active); in assay [14] it was 0.474 µM (active); in assay [15] it was 0.363 µM (active); in [16], 3.09 µM (inactive); in assay [17], 0.238 µM (active). In addition, the GI50 in assay [18] was 1.14 µM (inactive); in assay [19], 0.386 µM (active).
